Results as given in PMC11956013, “Structure–Activity Relationships and Evaluation of 2-(Heteroaryl-cycloalkyl)-1H-indoles as Tauopathy Positron Emission Tomography Radiotracers” (Journal of Medicinal Chemistry, 2025).

How the values were obtained:
[1] = biological target: D2L (h) (Homo sapiens, UniProt P14416); assay: biochemical
[2] = biological target: T1, tyrosine hydroxylase (Rattus norvegicus, UniProt P04177); assay: Eurofins panel: tyrosine hydroxylase; type: biochemical; conditions: compound concentration 1.0E-05 M
T1 construct: purchased Eurofins (CNS SafetyScreen panel, contract assay)

[3] = biological target: T2, 5-HT2C (h) (Homo sapiens, UniProt P28335); assay: Eurofins panel: 5-HT2C (h) (agonist radioligand); type: binding; conditions: 1.0E-05 M; 5-HT2C (h) (agonist radioligand)
T2 construct: purchased Eurofins (contract screening, CNS SafetyScreen panel)
T2 sequence (P28335 33-458): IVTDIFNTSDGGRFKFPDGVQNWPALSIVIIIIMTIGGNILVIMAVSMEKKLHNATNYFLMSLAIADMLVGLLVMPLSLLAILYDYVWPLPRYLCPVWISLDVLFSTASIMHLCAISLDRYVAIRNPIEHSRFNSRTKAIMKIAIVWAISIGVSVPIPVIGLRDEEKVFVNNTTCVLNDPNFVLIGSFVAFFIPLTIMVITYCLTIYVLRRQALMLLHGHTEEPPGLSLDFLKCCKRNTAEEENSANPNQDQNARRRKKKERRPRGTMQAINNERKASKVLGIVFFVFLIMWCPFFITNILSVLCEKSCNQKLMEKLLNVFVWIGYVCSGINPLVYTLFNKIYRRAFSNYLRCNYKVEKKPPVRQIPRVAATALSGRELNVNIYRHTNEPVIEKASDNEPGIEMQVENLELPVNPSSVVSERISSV

[4] = biological target: alpha1B (h) (Homo sapiens, UniProt P35368); conditions: 1.0E-05 M; alpha1B (h) (antagonist radioligand)
alpha1B (h), sequence (P35368 whole entry): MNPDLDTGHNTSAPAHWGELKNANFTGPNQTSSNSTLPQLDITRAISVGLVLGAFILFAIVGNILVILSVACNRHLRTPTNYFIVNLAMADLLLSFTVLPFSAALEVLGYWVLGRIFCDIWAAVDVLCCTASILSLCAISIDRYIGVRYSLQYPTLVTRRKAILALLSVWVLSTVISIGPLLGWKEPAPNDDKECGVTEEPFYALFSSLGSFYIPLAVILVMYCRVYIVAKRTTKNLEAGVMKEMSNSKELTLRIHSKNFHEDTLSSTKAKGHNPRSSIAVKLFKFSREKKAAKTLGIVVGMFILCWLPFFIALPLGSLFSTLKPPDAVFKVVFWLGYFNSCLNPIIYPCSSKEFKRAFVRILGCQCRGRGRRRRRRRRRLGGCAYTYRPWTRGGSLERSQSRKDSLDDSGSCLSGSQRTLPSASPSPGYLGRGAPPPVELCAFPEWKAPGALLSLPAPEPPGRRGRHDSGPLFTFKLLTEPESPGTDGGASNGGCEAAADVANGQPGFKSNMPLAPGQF

[5] = biological target: Y2 (h) (Homo sapiens, UniProt P49146); conditions: compound concentration 1.0E-05 M
[6] = biological target: CYP1A2 (Homo sapiens, UniProt P05177); assay: in vitro; conditions: human liver microsomes, probe tacrine
[7] = test system: ATPase (Na+/K+); assay: Eurofins panel: ATPase (Na+/K+) enzymatic activity; type: biochemical; conditions: 1.0E-05 M
[8] = biological target: IRK (h) (InsR) (Homo sapiens, UniProt P06213); assay: biochemical
IRK (h) (InsR), sequence (P06213 28-1382): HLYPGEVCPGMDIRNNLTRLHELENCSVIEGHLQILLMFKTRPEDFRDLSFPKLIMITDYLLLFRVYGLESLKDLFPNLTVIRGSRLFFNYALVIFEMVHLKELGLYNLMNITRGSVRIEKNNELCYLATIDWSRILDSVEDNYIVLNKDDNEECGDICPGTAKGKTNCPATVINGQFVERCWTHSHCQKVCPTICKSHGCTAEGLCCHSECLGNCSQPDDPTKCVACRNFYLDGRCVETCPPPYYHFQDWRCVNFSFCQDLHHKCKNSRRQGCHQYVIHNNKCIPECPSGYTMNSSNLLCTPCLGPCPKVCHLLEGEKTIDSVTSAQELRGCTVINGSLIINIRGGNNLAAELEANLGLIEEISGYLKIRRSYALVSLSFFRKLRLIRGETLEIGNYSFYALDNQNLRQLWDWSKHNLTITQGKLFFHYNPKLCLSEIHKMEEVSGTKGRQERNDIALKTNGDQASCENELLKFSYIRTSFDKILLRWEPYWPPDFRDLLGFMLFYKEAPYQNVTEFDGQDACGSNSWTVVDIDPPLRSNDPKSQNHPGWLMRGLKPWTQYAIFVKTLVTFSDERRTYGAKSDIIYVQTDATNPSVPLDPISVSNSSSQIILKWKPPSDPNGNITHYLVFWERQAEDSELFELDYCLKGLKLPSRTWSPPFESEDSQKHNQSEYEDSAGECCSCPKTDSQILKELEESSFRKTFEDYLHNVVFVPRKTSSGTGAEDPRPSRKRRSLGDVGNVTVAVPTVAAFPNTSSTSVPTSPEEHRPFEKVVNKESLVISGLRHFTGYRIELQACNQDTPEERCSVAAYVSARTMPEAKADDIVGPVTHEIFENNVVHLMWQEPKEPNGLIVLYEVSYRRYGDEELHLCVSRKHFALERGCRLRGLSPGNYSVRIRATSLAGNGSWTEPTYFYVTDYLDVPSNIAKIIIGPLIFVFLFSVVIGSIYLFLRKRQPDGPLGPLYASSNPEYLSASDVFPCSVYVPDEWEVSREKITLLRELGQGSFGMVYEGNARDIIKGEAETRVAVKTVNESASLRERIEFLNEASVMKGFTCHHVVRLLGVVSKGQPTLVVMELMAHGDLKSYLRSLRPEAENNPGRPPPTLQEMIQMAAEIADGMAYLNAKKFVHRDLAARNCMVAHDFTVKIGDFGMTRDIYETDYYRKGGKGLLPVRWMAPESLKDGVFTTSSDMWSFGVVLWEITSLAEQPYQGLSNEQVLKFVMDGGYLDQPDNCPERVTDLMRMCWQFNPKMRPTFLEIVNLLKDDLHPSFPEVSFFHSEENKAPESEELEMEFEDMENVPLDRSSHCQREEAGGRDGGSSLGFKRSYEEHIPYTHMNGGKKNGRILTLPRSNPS

[9] = biological target: CCK2 (CCKB) (h) (Homo sapiens, UniProt P32239); assay: biochemical
CCK2 (CCKB) (h), sequence (P32239 whole entry): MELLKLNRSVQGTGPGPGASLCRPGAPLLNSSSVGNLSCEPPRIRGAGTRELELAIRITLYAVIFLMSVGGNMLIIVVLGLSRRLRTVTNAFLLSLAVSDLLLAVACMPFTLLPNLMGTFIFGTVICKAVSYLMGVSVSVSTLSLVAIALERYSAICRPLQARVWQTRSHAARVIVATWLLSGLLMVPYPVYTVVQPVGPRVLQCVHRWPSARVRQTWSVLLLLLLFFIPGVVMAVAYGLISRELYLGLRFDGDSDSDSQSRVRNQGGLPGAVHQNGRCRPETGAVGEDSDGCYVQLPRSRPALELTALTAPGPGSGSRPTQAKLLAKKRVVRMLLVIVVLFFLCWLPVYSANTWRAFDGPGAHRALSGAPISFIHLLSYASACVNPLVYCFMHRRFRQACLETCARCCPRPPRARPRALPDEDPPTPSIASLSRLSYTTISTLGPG

[10] = biological target: delta (DOP) (h) (Homo sapiens, UniProt P41143); assay: biochemical
[11] = test system: 98 CNS protein targets; assay: Eurofins CNS SafetyScreen panel at 10 μM; type: binding; conditions: 10-μM concentration
[12] = biological target: Y1 (h) (Homo sapiens, UniProt P25929); conditions: compound concentration 1.0E-05 M
Y1 (h), sequence (P25929 whole entry): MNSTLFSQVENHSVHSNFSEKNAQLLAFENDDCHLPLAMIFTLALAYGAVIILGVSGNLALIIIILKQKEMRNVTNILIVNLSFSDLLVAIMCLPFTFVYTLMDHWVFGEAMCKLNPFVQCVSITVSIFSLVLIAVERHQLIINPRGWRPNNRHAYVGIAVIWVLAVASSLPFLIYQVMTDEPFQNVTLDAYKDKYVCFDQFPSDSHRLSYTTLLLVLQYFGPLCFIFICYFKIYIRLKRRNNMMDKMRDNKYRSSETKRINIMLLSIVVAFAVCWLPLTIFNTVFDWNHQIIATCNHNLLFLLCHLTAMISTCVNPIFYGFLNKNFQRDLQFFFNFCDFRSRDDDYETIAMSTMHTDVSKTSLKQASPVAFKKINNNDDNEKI

[13] = biological target: T3, cathepsin B (h) (Homo sapiens, UniProt P07858); assay: Eurofins panel: cathepsin B (h) enzymatic activity; type: biochemical; conditions: 1.0E-05 M; cathepsin B (h)
T3 construct: Eurofins (panel run by the vendor)

[14] = test system: Ca2+ channel (L, verapamil site) (phenylalkylamine); assay: Eurofins panel: Ca2+ channel (L, verapamil site) (phenylalkylamine) (antagonist radioligand); type: binding; conditions: 1.0E-05 M
[15] = biological target: A2B (h) (Homo sapiens, UniProt P29275); assay: Eurofins panel: A2B (h) (antagonist radioligand); conditions: 1.0E-05 M
[16] = biological target: A2A (h) (Homo sapiens, UniProt P29274); conditions: 1.0E-05 M; A2A (h) (agonist radioligand)
A2A (h), sequence (P29274 whole entry): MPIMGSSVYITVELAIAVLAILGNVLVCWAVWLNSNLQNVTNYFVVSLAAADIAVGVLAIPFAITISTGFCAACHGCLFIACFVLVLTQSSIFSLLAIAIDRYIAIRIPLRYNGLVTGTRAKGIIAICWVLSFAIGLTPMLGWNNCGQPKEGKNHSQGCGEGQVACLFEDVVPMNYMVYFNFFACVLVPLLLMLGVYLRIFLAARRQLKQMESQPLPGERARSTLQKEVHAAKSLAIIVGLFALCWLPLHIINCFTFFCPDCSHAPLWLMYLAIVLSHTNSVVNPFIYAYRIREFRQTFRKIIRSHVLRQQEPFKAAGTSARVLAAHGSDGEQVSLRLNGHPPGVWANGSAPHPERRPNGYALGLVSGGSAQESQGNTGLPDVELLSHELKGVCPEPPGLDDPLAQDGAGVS

[17] = biological target: D3 (h) (Homo sapiens, UniProt P35462); assay: D3 (h) (antagonist radioligand), Eurofins assay 48
[18] = biological target: beta2 (h) (Homo sapiens, UniProt P07550); assay: Eurofins panel: beta2 (h) (antagonist radioligand); conditions: 1.0E-05 M
[19] = biological target: M2 (h) (Homo sapiens, UniProt P08172); assay: biochemical
[20] = biological target: T4, OX2 (h) (Homo sapiens, UniProt O43614); assay: Eurofins panel: OX2 (h) (agonist radioligand); conditions: compound concentration 1.0E-05 M
T4 sequence (O43614 1-444): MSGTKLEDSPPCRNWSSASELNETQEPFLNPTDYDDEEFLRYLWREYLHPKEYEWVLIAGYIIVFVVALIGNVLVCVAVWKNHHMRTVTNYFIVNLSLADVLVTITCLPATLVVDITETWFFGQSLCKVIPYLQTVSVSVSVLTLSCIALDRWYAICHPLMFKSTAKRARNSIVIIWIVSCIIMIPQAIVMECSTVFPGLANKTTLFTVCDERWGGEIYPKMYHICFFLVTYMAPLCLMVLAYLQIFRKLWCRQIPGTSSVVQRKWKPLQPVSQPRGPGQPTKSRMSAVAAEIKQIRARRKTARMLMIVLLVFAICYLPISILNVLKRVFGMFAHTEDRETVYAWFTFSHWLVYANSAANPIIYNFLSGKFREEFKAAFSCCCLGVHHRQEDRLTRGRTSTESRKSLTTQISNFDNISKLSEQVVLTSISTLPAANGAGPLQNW

[21] = biological target: MT1 (ML1A) (h) (Homo sapiens, UniProt P48039); assay: MT1 (ML1A) (h) (agonist radioligand), Eurofins assay 1538
MT1 (ML1A) (h), sequence (P48039 whole entry): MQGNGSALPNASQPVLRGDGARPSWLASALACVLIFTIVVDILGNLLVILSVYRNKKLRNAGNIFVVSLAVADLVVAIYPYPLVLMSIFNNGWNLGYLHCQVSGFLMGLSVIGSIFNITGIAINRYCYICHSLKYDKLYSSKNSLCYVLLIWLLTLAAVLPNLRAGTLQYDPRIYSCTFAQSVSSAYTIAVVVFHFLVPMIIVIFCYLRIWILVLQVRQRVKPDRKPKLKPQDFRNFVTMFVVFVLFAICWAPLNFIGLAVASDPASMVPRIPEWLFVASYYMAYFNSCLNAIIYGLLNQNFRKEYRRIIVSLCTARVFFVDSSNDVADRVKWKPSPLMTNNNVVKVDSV

[22] = biological target: GABA transaminase (Rattus norvegicus, UniProt P50554); assay: GABA transaminase, Eurofins assay 461; type: biochemical; conditions: Enzymatic activity; 1.0E-05 M
GABA transaminase, sequence (P50554 28-500): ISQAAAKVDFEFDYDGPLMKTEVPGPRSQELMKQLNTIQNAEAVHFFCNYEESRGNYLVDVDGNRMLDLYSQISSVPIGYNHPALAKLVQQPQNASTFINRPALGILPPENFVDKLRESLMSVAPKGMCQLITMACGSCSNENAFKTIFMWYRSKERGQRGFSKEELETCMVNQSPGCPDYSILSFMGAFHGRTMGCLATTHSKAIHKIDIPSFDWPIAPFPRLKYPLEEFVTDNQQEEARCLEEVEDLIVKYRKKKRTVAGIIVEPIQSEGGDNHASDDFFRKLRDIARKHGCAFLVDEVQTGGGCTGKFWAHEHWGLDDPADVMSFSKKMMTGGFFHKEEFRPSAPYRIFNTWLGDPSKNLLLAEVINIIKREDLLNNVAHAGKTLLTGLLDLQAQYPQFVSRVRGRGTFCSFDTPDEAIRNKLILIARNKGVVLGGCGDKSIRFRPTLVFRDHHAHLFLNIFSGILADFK

[23] = biological target: 5-HT4e (h) (Homo sapiens, UniProt Q13639); assay: Eurofins panel: 5-HT4e (h) (antagonist radioligand); conditions: 1.0E-05 M; 5-HT4e (h) (antagonist radioligand)
5-HT4e (h), sequence (Q13639 1-378 isoform Q13639-5): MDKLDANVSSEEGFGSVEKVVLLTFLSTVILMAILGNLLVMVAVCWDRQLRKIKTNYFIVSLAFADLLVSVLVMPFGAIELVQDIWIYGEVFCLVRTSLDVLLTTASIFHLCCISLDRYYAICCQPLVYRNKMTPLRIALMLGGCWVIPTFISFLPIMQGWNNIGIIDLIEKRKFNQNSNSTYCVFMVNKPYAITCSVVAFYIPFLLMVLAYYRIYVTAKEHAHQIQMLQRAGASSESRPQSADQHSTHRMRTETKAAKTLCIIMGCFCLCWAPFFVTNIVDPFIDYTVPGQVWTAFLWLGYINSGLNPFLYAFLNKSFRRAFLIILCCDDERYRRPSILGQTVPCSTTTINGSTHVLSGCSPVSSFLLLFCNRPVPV

[24] = biological target: T5, cathepsin L (h) (Homo sapiens, UniProt P07711); assay: Eurofins panel: cathepsin L (h) enzymatic activity; type: biochemical; conditions: 1.0E-05 M; cathepsin L (h)
T5 construct: Eurofins (panel run by the vendor)
T5 sequence (P07711 114-333): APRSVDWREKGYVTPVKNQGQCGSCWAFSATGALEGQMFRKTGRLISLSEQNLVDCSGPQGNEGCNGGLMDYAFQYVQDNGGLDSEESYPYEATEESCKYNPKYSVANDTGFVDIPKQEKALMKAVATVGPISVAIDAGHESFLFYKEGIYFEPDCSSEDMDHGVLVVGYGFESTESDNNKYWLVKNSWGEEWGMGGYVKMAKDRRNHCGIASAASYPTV

[25] = biological target: CB2 (h) (Homo sapiens, UniProt P34972); assay: CB2 (h) (agonist radioligand), Eurofins assay 37
CB2 (h), sequence (P34972 whole entry): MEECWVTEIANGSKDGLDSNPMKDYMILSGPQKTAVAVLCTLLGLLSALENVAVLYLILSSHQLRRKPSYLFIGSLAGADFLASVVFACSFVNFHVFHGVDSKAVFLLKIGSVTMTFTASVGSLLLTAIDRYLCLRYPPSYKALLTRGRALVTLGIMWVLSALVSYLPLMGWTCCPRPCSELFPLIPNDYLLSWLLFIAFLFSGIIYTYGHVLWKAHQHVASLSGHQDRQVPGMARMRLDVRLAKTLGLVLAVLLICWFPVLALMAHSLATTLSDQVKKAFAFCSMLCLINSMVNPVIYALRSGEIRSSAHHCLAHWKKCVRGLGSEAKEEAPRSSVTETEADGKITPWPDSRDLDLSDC

Compound: Fc1nc(N2CCOCC2)ccc1-c1cc2ccccc2[nH]1 [Compound 75, 4-(6-Fluoro-5-(1H-indol-2-yl)pyridin-2-yl)morpholine]
- inhibition at 10 µM [1]: -1.3%
- % Inhibition, Enzymatic activity [2]: -8.91E+00%
- % Inhibition, Specific binding [3]: 5.817%
- % Inhibition, Specific binding [4]: -4.91E+00%
- % Inhibition, Specific binding [5]: 3.943%
- inhibition at 10 µM [6]: -10.4%
- % Inhibition, Enzymatic activity [7]: -2.26E+00%
- inhibition at 10 µM [8]: -5.12%
- inhibition at 10 µM [9]: 2.96%
- inhibition at 10 µM [10]: -13.7%
- inhibition at 96 of 98 CNS targets [11]: ≤ 25.3%
- % Inhibition, Specific binding [12]: -2.40E+01%
- % Inhibition, Enzymatic activity [13]: -8.47E+00%
- % Inhibition, Specific binding [14]: -2.08E+01%
- % Inhibition, Specific binding [15]: -1.19E+01%
- % Inhibition, Specific binding [16]: 6.474%
- inhibition at 10 µM [17]: -5.9%
- % Inhibition, Specific binding [18]: 4.9424%
- inhibition at 10 µM [19]: -12.8%
- % Inhibition, Specific binding [20]: 0.786%
- inhibition at 10 µM [21]: 13%
- inhibition at 10 µM [22]: -0.726%
- % Inhibition, Specific binding [23]: 10.412%
- % Inhibition, Enzymatic activity [24]: 15.4729%
- inhibition at 10 µM [25]: -17.9%
